Laboratory results as given in patent US4471131A, “Novel silyl esters of N-phosphonomethylglycine” (Monsanto Company, priority 1983, dated 1984).

Columns and labels:
Test in all cases: post-emergence herbicidal activity, greenhouse
Type in all cases: in vivo
Hemp Sesbania = details: Table III
In short: (§1)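 Plants grown from seed or vegetative propagules in topsoil pans on a greenhouse sand bench, watered from below, were atomizer-sprayed at two to three weeks of age. The spray carried about 0.4% by weight emulsifier. Injury relative to unsprayed control pans was scored approximately two and four weeks after treatment.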

Wild Buckwheat = details: Table III
In short: as §1

Sugar Beet = details: Table III
In short: as §1

Common Lambsquarters = test system: Common Lambsquarters
In short: as §1

Quackgrass = details: Table II
In short: (§2)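 The readout is plant injury compared with untreated pans, taken at two time points, about two and four weeks after spraying. Plants had grown two to three weeks in greenhouse topsoil pans before atomizer treatment.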

Downy Brome = test system: Downy Brome
In short: as §1

Yellow Nutsedge = details: Table II
In short: as §2

Canada Thistle = details: Table II, formulated in anhydrous tetrahydrofuran
In short: as §1

Cocklebur = test system: Cocklebur
In short: as §1

[1] = 2 WAT, 1.1 kg/h, formulated in anhydrous tetrahydrofuran
[2] = 2 WAT, 5.6 kg/h, formulated in anhydrous tetrahydrofuran
[3] = 2 WAT, .28 kg/h, formulated in anhydrous tetrahydrofuran
[4] = 4 WAT, 1.1 kg/h, formulated in anhydrous tetrahydrofuran
[5] = 4 WAT, 5.6 kg/h, formulated in anhydrous tetrahydrofuran
[6] = 4 WAT, .28 kg/h, formulated in anhydrous tetrahydrofuran
[7] = Table II, 2 WAT, 5.6 kg/h, formulated in anhydrous tetrahydrofuran
[8] = Table II, 2 WAT, 11.2 kg/h, formulated in anhydrous tetrahydrofuran
[9] = Table II, 4 WAT, 5.6 kg/h, formulated in anhydrous tetrahydrofuran
[10] = Table II, 4 WAT, 11.2 kg/h, formulated in anhydrous tetrahydrofuran
[11] = Table III, 2 WAT, 1.1 kg/h, formulated in anhydrous tetrahydrofuran
[12] = Table III, 2 WAT, 5.6 kg/h, formulated in anhydrous tetrahydrofuran
[13] = Table III, 2 WAT, .28 kg/h, formulated in anhydrous tetrahydrofuran
[14] = Table III, 4 WAT, 1.1 kg/h, formulated in anhydrous tetrahydrofuran
[15] = Table III, 4 WAT, 5.6 kg/h, formulated in anhydrous tetrahydrofuran
[16] = Table III, 4 WAT, .28 kg/h, formulated in anhydrous tetrahydrofuran
[17] = 2 WAT, 11.2 kg/h, formulated in anhydrous tetrahydrofuran
[18] = 4 WAT, 11.2 kg/h, formulated in anhydrous tetrahydrofuran

Compound: CCOC(=O)CNCP(=O)(O)O[Si](c1ccccc1)(c1ccccc1)C(C)(C)C [Ex. 7, Glycine, N--((([(1,1-Dimethylethyl)Diphenylsilyl]Oxy)Hydroxyphosphinyl)Methyl)-,Ethyl Ester]
- Plant Response Index (R) (Hemp Sesbania; 2 WAT, 1.1 kg/h): 3 (75-99% inhibition)
- Plant Response Index (R) (Hemp Sesbania; [1]): 2 (50-74% inhibition)
- Plant Response Index (R) (Hemp Sesbania; 2 WAT, 5.6 kg/h): 1 (25-49% inhibition)
- Plant Response Index (R) (Hemp Sesbania; [2]): 1 (25-49% inhibition)
- Plant Response Index (R) (Hemp Sesbania; 2 WAT, .28 kg/h): 1 (25-49% inhibition)
- Plant Response Index (R) (Hemp Sesbania; [3]): 0 (0-24% inhibition)
- Plant Response Index (R) (Hemp Sesbania; 4 WAT, 1.1 kg/h): 4 (100% inhibition)
- Plant Response Index (R) (Hemp Sesbania; [4]): 2 (50-74% inhibition)
- Plant Response Index (R) (Hemp Sesbania; 4 WAT, 5.6 kg/h): 2 (50-74% inhibition)
- Plant Response Index (R) (Hemp Sesbania; [5]): 1 (25-49% inhibition)
- Plant Response Index (R) (Hemp Sesbania; 4 WAT, .28 kg/h): 1 (25-49% inhibition)
- Plant Response Index (R) (Hemp Sesbania; [6]): 0 (0-24% inhibition)
- Plant Response Index (Q) (Wild Buckwheat; 2 WAT, 1.1 kg/h): 2 (50-74% inhibition)
- Plant Response Index (Q) (Wild Buckwheat; [1]): 2 (50-74% inhibition)
- Plant Response Index (Q) (Wild Buckwheat; 2 WAT, 5.6 kg/h): 2 (50-74% inhibition)
- Plant Response Index (Q) (Wild Buckwheat; [2]): 3 (75-99% inhibition)
- Plant Response Index (Q) (Wild Buckwheat; 2 WAT, .28 kg/h): 2 (50-74% inhibition)
- Plant Response Index (Q) (Wild Buckwheat; [3]): 1 (25-49% inhibition)
- Plant Response Index (Q) (Wild Buckwheat; 4 WAT, 1.1 kg/h): 2 (50-74% inhibition)
- Plant Response Index (Q) (Wild Buckwheat; [4]): 2 (50-74% inhibition)
- Plant Response Index (Q) (Wild Buckwheat; 4 WAT, 5.6 kg/h): 3 (75-99% inhibition)
- Plant Response Index (Q) (Wild Buckwheat; [5]): 3 (75-99% inhibition)
- Plant Response Index (Q) (Wild Buckwheat; 4 WAT, .28 kg/h): 2 (50-74% inhibition)
- Plant Response Index (Q) (Wild Buckwheat; [6]): 1 (25-49% inhibition)
- Plant Response Index (M) (Sugar Beet; 2 WAT, 1.1 kg/h): 1 (25-49% inhibition)
- Plant Response Index (M) (Sugar Beet; [1]): 1 (25-49% inhibition)
- Plant Response Index (M) (Sugar Beet; 2 WAT, 5.6 kg/h): 1 (25-49% inhibition)
- Plant Response Index (M) (Sugar Beet; [2]): 3 (75-99% inhibition)
- Plant Response Index (M) (Sugar Beet; 2 WAT, .28 kg/h): 1 (25-49% inhibition)
- Plant Response Index (M) (Sugar Beet; [3]): 1 (25-49% inhibition)
- Plant Response Index (M) (Sugar Beet; 4 WAT, 1.1 kg/h): 1 (25-49% inhibition)
- Plant Response Index (M) (Sugar Beet; [4]): 1 (25-49% inhibition)
- Plant Response Index (M) (Sugar Beet; 4 WAT, 5.6 kg/h): 2 (50-74% inhibition)
- Plant Response Index (M) (Sugar Beet; [5]): 4 (100% inhibition)
- Plant Response Index (M) (Sugar Beet; 4 WAT, .28 kg/h): 1 (25-49% inhibition)
- Plant Response Index (M) (Sugar Beet; [6]): 1 (25-49% inhibition)
- Plant Response Index (E) (Common Lambsquarters; Table II, 2 WAT, 5.6 kg/h): 3 (75-99% inhibition)
- Plant Response Index (E) (Common Lambsquarters; [7]): 3 (75-99% inhibition)
- Plant Response Index (E) (Common Lambsquarters; Table II, 2 WAT, 11.2 kg/h): 4 (100% inhibition)
- Plant Response Index (E) (Common Lambsquarters; [8]): 4 (100% inhibition)
- Plant Response Index (E) (Common Lambsquarters; Table II, 4 WAT, 5.6 kg/h): 3 (75-99% inhibition)
- Plant Response Index (E) (Common Lambsquarters; [9]): 3 (75-99% inhibition)
- Plant Response Index (E) (Common Lambsquarters; Table II, 4 WAT, 11.2 kg/h): 4 (100% inhibition)
- Plant Response Index (E) (Common Lambsquarters; [10]): 4 (100% inhibition)
- Plant Response Index (E) (Common Lambsquarters; Table III, 2 WAT, 1.1 kg/h): 4 (100% inhibition)
- Plant Response Index (E) (Common Lambsquarters; [11]): 4 (100% inhibition)
- Plant Response Index (E) (Common Lambsquarters; Table III, 2 WAT, 5.6 kg/h): 3 (75-99% inhibition)
- Plant Response Index (E) (Common Lambsquarters; [12]): 4 (100% inhibition)
- Plant Response Index (E) (Common Lambsquarters; Table III, 2 WAT, .28 kg/h): 3 (75-99% inhibition)
- Plant Response Index (E) (Common Lambsquarters; [13]): 2 (50-74% inhibition)
- Plant Response Index (E) (Common Lambsquarters; Table III, 4 WAT, 1.1 kg/h): 4 (100% inhibition)
- Plant Response Index (E) (Common Lambsquarters; [14]): 4 (100% inhibition)
- Plant Response Index (E) (Common Lambsquarters; Table III, 4 WAT, 5.6 kg/h): 3 (75-99% inhibition)
- Plant Response Index (E) (Common Lambsquarters; [15]): 4 (100% inhibition)
- Plant Response Index (E) (Common Lambsquarters; Table III, 4 WAT, .28 kg/h): 3 (75-99% inhibition)
- Plant Response Index (E) (Common Lambsquarters; [16]): 3 (75-99% inhibition)
- Plant Response Index (H) (Quackgrass; 2 WAT, 5.6 kg/h): 1 (25-49% inhibition)
- Plant Response Index (H) (Quackgrass; [2]): 1 (25-49% inhibition)
- Plant Response Index (H) (Quackgrass; 2 WAT, 11.2 kg/h): 2 (50-74% inhibition)
- Plant Response Index (H) (Quackgrass; [17]): 1 (25-49% inhibition)
- Plant Response Index (H) (Quackgrass; 4 WAT, 5.6 kg/h): 4 (100% inhibition)
- Plant Response Index (H) (Quackgrass; [5]): 2 (50-74% inhibition)
- Plant Response Index (H) (Quackgrass; 4 WAT, 11.2 kg/h): 3 (75-99% inhibition)
- Plant Response Index (H) (Quackgrass; [18]): 2 (50-74% inhibition)
- Plant Response Index (J) (Downy Brome; Table II, 2 WAT, 5.6 kg/h): 2 (50-74% inhibition)
- Plant Response Index (J) (Downy Brome; [7]): 1 (25-49% inhibition)
- Plant Response Index (J) (Downy Brome; Table II, 2 WAT, 11.2 kg/h): 2 (50-74% inhibition)
- Plant Response Index (J) (Downy Brome; [8]): 1 (25-49% inhibition)
- Plant Response Index (J) (Downy Brome; Table II, 4 WAT, 5.6 kg/h): 3 (75-99% inhibition)
- Plant Response Index (J) (Downy Brome; [9]): 1 (25-49% inhibition)
- Plant Response Index (J) (Downy Brome; Table II, 4 WAT, 11.2 kg/h): 3 (75-99% inhibition)
- Plant Response Index (J) (Downy Brome; [10]): 1 (25-49% inhibition)
- Plant Response Index (J) (Downy Brome; Table III, 2 WAT, 1.1 kg/h): 2 (50-74% inhibition)
- Plant Response Index (J) (Downy Brome; [11]): 1 (25-49% inhibition)
- Plant Response Index (J) (Downy Brome; Table III, 2 WAT, 5.6 kg/h): 2 (50-74% inhibition)
- Plant Response Index (J) (Downy Brome; [12]): 2 (50-74% inhibition)
- Plant Response Index (J) (Downy Brome; Table III, 2 WAT, .28 kg/h): 1 (25-49% inhibition)
- Plant Response Index (J) (Downy Brome; [13]): 0 (0-24% inhibition)
- Plant Response Index (J) (Downy Brome; Table III, 4 WAT, 1.1 kg/h): 2 (50-74% inhibition)
- Plant Response Index (J) (Downy Brome; [14]): 1 (25-49% inhibition)
- Plant Response Index (J) (Downy Brome; Table III, 4 WAT, 5.6 kg/h): 2 (50-74% inhibition)
- Plant Response Index (J) (Downy Brome; [15]): 3 (75-99% inhibition)
- Plant Response Index (J) (Downy Brome; Table III, 4 WAT, .28 kg/h): 0 (0-24% inhibition)
- Plant Response Index (J) (Downy Brome; [16]): 0 (0-24% inhibition)
- Plant Response Index (G) (Yellow Nutsedge; 2 WAT, 5.6 kg/h): 1 (25-49% inhibition)
- Plant Response Index (G) (Yellow Nutsedge; [2]): 1 (25-49% inhibition)
- Plant Response Index (G) (Yellow Nutsedge; 2 WAT, 11.2 kg/h): 2 (50-74% inhibition)
- Plant Response Index (G) (Yellow Nutsedge; [17]): 1 (25-49% inhibition)
- Plant Response Index (G) (Yellow Nutsedge; 4 WAT, 5.6 kg/h): 2 (50-74% inhibition)
- Plant Response Index (G) (Yellow Nutsedge; [5]): 2 (50-74% inhibition)
- Plant Response Index (G) (Yellow Nutsedge; 4 WAT, 11.2 kg/h): 3 (75-99% inhibition)
- Plant Response Index (G) (Yellow Nutsedge; [18]): 2 (50-74% inhibition)
- Plant Response Index (A) (Canada Thistle; 2 WAT, 5.6 kg/h): 1 (25-49% inhibition)
- Plant Response Index (A) (Canada Thistle; 2 WAT, 11.2 kg/h): 1 (25-49% inhibition)
- Plant Response Index (A) (Canada Thistle; 4 WAT, 5.6 kg/h): 3 (75-99% inhibition)
- Plant Response Index (A) (Canada Thistle; 4 WAT, 11.2 kg/h): 3 (75-99% inhibition)
- Plant Response Index (B) (Cocklebur; Table II, 2 WAT, 5.6 kg/h): 3 (75-99% inhibition)
- Plant Response Index (B) (Cocklebur; [7]): 2 (50-74% inhibition)
- Plant Response Index (B) (Cocklebur; Table II, 2 WAT, 11.2 kg/h): 2 (50-74% inhibition)
- Plant Response Index (B) (Cocklebur; [8]): 1 (25-49% inhibition)
- Plant Response Index (B) (Cocklebur; Table II, 4 WAT, 5.6 kg/h): 4 (100% inhibition)
- Plant Response Index (B) (Cocklebur; [9]): 3 (75-99% inhibition)
- Plant Response Index (B) (Cocklebur; Table II, 4 WAT, 11.2 kg/h): 4 (100% inhibition)
- Plant Response Index (B) (Cocklebur; [10]): 3 (75-99% inhibition)
- Plant Response Index (B) (Cocklebur; Table III, 2 WAT, 1.1 kg/h): 2 (50-74% inhibition)
- Plant Response Index (B) (Cocklebur; [11]): 2 (50-74% inhibition)
- Plant Response Index (B) (Cocklebur; Table III, 2 WAT, 5.6 kg/h): 2 (50-74% inhibition)
- Plant Response Index (B) (Cocklebur; [12]): 3 (75-99% inhibition)
- Plant Response Index (B) (Cocklebur; Table III, 2 WAT, .28 kg/h): 1 (25-49% inhibition)
- Plant Response Index (B) (Cocklebur; [13]): 2 (50-74% inhibition)
- Plant Response Index (B) (Cocklebur; Table III, 4 WAT, 1.1 kg/h): 3 (75-99% inhibition)
- Plant Response Index (B) (Cocklebur; [14]): 2 (50-74% inhibition)
- Plant Response Index (B) (Cocklebur; Table III, 4 WAT, 5.6 kg/h): 3 (75-99% inhibition)
- Plant Response Index (B) (Cocklebur; [15]): 3 (75-99% inhibition)
- Plant Response Index (B) (Cocklebur; Table III, 4 WAT, .28 kg/h): 1 (25-49% inhibition)
- Plant Response Index (B) (Cocklebur; [16]): 2 (50-74% inhibition)
